Columns and labels:
[1] = UV absorption properties (λmax, molar extinction coefficient ε, efficiency E 1%, 1 cm); assay type: physicochemical; settings: for λmax / E (1%, 1 cm) / ε: Table 13B; for λmax: miscellaneous compounds; for E (1%, 1 cm) / ε / ε (molar extinction coefficient): values in order of the λmax values; for ε: in M-1 cm-1
[2] = Critical wavelength (λcrit), approximate in-house measurement; assay type: physicochemical; settings: for λcrit: Table 13B
Source text: As the precise test for critical wavelength was unable to be replicated exactly by the inventors due to the need for specialist equipment and a specific calibration of the spectrophotometer, these values are only approximate to a degree. […] This represents a highly useful result and so, compounds based around this benzoyl substitution pattern shown, are especially preferred.

Photostability = assay type: physicochemical; settings: Table 13B
[3] = literature value, standardised test; cited from earlier work

| Structure (SMILES) | UV λmax [1] [nm] | ε (molar extinction coefficient) [1] [M⁻¹ cm⁻¹] | melting point | other results |
| --- | --- | --- | --- | --- |
| Cc1ccc(NC(=O)C2=CN(C(C)(C)CC(C)(C)C)CCC2(C)C)cc1NC(=O)C1=CN(C(C)(C)CC(C)(C)C)CCC1(C)C |  |  |  | λmax [1]: 311 nm; E (1%, 1 cm) [1]: 990; ε [1]: 61479; λcrit [2]: 328 nm; Photostability (%) (Photostability): 55% |
| CCCCC(CC)CN(c1ccc(C(=O)C2=CN(C(C)(C)C)CCC2(C)C)cc1)c1ccc(C(=O)C2=CN(C(C)(C)C)CCC2(C)C)cc1.Cl (centres unmarked) |  |  |  | λmax [1]: 316 nm; E (1%, 1 cm) [1]: 653; ε [1]: 45910; λcrit [2]: 370 nm; Photostability (%) (Photostability): 39% |
| COc1ccc(C(=O)CC(=O)c2ccc(C(C)(C)C)cc2)cc1 [Avobenzone, reference compound] |  |  |  | critical wavelength ([2]; values only approximate): 378 nm; critical wavelength, reported [3]: 380 nm |
| CN(C)c1ccc(C(=O)C2=CN(C(C)(C)C)CCC2(C)C)cc1 [Compound 157, (1-(tert-butyl)-4,4-dimethyl-1,4,5,6-tetrahydropyridine-3-yl)(4-(dimethylamino)phenyl)methanone] | 333 | 24966 | 162 to 163 °C |  |
| CC(C)(C)Oc1ccc(C(=O)C2=CN(C(C)(C)C)CCC2(C)C)cc1 [Compound 158, (4-(tert-butoxy)phenyl)(1-(tert-butyl)-4,4-dimethyl-1,4,5,6-tetrahydropyridin-3-yl)methanone] | 317 | 32556 | 98 to 101 °C |  |
| CC1(C)CCN(C(C)(C)C)C=C1C(=O)c1ccc(C(=O)C2=CN(C(C)(C)C)CCC2(C)C)cc1 [Compound 159, 1,4-phenylenebis((1-(tert-butyl)-4,4-dimethyl-1,4,5,6-tetrahydropyridin-3-yl)methanone)] | 317 | 33982 | 243 °C (dec.) |  |
| CC1(C)CCN(C(C)(C)C)C=C1C(=O)c1ccc(C(=O)O)cc1 [Compound 160, 4-(1-(tert-butyl)-4,4-dimethyl-1,4,5,6-tetrahydropyridine-3-carbonyl)benzoic acid] | 317 | 17300 | 80 to 83 °C |  |
| CC1(C)CCN(c2ccc(C(C)(C)C)cc2)C=C1C(OC(=O)C1c2ccccc2-c2ccccc21)=C1c2ccccc2-c2ccccc21 [Compound 206, (1-(4-(tert-butyl)phenyl)-4,4-dimethyl-1,4,5,6-tetrahydropyridin-3-yl)(9H-fluoren-9-ylidene)methyl 9H-fluorene-9-carboxylate] | 407 |  | 145 °C |  |

Source: US10519111B2, “UV absorbing compounds, compositions comprising same and uses thereof” (CORAL SUNSCREEN PTY LTD, priority 2013, dated 2019)
